This test addresses "atypical" β-adrenoceptors (Cavia porcellus, UniProt Q3HNP5). The test is described as follows: Relaxation of histamine-contracted guinea-pig ileum. The note with it: histamine 0.5 μM contraction, propranolol 5 μM, atropine 1 μM, phentolamine 3 μM present, read-out: EC30 (concentration of agonist producing a relaxation equivalent to 30% histamine inhibition).

Structures can show the parent of a compound that is named as a salt.

"atypical" β-adrenoceptors, sequence (Q3HNP5 1-379): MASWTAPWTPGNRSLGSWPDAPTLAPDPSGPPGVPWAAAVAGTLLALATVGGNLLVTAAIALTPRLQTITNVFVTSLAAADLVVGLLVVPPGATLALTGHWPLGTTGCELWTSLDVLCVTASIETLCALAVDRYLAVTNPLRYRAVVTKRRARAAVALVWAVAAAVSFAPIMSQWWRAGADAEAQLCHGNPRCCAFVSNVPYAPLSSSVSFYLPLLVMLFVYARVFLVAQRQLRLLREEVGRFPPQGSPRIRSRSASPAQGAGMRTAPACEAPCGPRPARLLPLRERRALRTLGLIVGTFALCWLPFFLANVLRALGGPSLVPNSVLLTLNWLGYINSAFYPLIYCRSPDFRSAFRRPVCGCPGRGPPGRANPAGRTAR

On to `COCCNC(=O)COc1ccc(OCCNC[C@H](O)COc2ccccc2)cc1` [(S)-4-[2-(2-hydroxy-3-phenoxypropylamino)ethoxy]-N-(2-methoxyethyl)phenoxyacetamide hydrochloride], for which the EC30 was 0.94 ± 0.26 µM.

The values are drawn from patent US5244923A, “Use of 2-(phenoxypropanolamino) ethoxphenoxy-acetic acid and its derivatives to inhibit gastrointestinal motility” (Imperial Chemical Industries PLC, priority 1990, dated 1993).
